How the values were obtained:
Assay type in all cases: biochemical
Conditions in all cases: 1 μM inhibitor concentration
[1] = target: RSK2 (Homo sapiens (Human), UniProt P51812); test: RSK2 kinase selectivity assay
Experimental: MAPKAP-K1b (5-20 mU diluted in 20 mM MOPS pH 7.5, 1 mM EDTA, 0.01% Brij35, 5% glycerol, 0.1% b-mercaptoethanol, 1 mg/ml BSA) is assayed against substrate peptide ([…]) in a final volume of […] containing 50 mM Na-b-glycerophosphate (pH 7.5), 0.5 mM EDTA, 30 μM substrate peptide, 10 mM magnesium acetate and 0.05 mM [33P-g-ATP] (50-1000 cpm/pmole) and incubated for 30 min at room temperature. Assays are stopped by addition of 5 μl of 0.5 M (3%) orthophosphoric acid and then harvested onto P81 Unifilter plates with a wash buffer of 50 mM orthophosphoric acid.

[2] = target: GSK3b (Homo sapiens (Human), UniProt P49841); test: GSK3b kinase selectivity assay
Chain of GSK3b (P49841 whole entry, species assumed): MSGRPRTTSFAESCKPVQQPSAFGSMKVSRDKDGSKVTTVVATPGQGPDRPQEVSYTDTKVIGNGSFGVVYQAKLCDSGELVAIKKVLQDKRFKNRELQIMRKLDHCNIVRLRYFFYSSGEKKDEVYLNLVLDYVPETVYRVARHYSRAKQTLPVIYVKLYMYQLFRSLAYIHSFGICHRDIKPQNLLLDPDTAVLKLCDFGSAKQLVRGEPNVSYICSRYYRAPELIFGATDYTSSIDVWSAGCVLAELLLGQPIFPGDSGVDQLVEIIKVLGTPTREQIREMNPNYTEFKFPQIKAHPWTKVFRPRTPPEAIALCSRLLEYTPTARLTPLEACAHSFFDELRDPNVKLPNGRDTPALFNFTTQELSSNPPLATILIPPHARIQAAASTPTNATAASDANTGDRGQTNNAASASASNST
Experimental: GSK3b (5-20 mU diluted in 20 mM MOPS pH 7.5, 1 mM EDTA, 0.01% Brij35, 5% glycerol, 0.1% b-mercaptoethanol, 1 mg/ml BSA) is assayed against Phospho-GS2 peptide ([…](PO4)EDEEE) in a final volume of 25.5 μl containing 8 mM MOPS pH 7.0, 0.2 mM EDTA, 20 μM Phospho GS2 peptide, 10 mM magnesium acetate and 0.005 mM [33P-g-ATP] (50-1000 cpm/pmole) and incubated for 30 min at room temperature. Assays are stopped by addition of 5 μl of 0.5 M (3%) orthophosphoric acid and then harvested onto P81 Unifilter plates with a wash buffer of 50 mM orthophosphoric acid.

[3] = target: EF2K (Homo sapiens (Human), UniProt O00418); test: EF2K kinase selectivity assay
Experimental: EF2K (5-20 mU diluted in 50 mM Hepes pH 6.6, 0.1% b-mercaptoethanol, 1 mg/ml BSA) is assayed against a substrate peptide ([…]) in a final volume of 25.5 μl containing 50 mM Hepes pH 6.6, 0.2 mM CaCl2, 0.3 μM Calmodulin, 0.05% b-mercaptoethanol, 300 μM substrate peptide, 10 mM magnesium acetate and 0.005 mM [33P-g-ATP] (50-1000 cpm/pmole) and incubated for 30 min at room temperature. Assays are stopped by addition of 5 μl of 0.5 M (3%) orthophosphoric acid and then harvested onto P81 Unifilter plates with a wash buffer of 50 mM orthophosphoric acid.

[4] = target: MST2 (Homo sapiens (Human), UniProt Q13188); test: MST2 kinase selectivity assay
Experimental: (§1) MST2 (5-20 mU diluted in 50 mM Tris pH 7.5, 0.1 mM EGTA, 0.1% b-mercaptoethanol, 100 µM Vanadate) is assayed against MBP in a final volume of 25.5 μl containing 50 mM Tris pH 7.5, 0.05% b-mercaptoethanol, 0.33 mg/ml MBP, 10 mM magnesium acetate and 0.02 mM [33P-g-ATP] (50-1000 cpm/pmole) and incubated for 30 min at room temperature. Assays are stopped by addition of 5 μl of 0.5 M (3%) orthophosphoric acid and then harvested onto P81 Unifilter plates with a wash buffer of 50 mM orthophosphoric acid.

[5] = target: MLK1 (Homo sapiens (Human), UniProt P80192); test: MLK1 kinase selectivity assay
Chain of MLK1 (P80192 whole entry, species assumed): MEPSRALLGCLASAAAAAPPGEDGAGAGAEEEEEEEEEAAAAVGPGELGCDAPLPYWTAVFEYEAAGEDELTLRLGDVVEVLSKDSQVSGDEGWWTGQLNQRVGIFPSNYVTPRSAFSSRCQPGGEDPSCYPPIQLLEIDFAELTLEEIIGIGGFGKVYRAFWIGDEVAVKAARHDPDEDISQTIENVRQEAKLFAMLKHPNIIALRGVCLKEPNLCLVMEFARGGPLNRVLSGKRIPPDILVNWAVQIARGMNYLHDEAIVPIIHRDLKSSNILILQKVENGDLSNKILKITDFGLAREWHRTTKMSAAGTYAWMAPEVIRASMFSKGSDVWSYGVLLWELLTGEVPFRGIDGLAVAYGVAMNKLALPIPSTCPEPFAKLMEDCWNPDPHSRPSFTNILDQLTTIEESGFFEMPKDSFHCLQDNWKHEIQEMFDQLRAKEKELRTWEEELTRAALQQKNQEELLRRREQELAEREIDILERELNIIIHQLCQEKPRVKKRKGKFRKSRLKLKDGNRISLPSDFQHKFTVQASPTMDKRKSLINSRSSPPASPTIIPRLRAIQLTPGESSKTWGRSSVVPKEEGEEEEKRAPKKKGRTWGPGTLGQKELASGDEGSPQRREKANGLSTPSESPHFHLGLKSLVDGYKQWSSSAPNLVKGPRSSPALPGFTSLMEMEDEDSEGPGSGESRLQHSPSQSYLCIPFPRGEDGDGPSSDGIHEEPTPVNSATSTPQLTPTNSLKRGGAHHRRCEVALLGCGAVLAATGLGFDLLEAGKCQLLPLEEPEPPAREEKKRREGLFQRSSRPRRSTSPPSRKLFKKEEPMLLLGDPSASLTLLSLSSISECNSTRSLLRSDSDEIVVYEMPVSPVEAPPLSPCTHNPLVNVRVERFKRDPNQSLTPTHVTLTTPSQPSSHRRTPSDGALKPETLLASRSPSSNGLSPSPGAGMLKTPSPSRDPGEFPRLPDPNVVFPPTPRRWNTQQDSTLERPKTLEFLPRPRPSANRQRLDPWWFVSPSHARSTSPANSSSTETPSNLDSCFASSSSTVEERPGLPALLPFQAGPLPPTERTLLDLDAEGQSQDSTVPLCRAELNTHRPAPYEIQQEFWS
Experimental: as §1, with “MLK1” for “MST2”, “0-mercaptoethanol, 1 mg/ml BSA)” for “b-mercaptoethanol, 100 µM Vanadate)”, “0.1 mM EGTA,” for “0.05% b-mercaptoethanol,”, “[33P-γ-ATP]” for “[33P-g-ATP]”

[6] = target: RIPK2 (Homo sapiens (Human), UniProt O43353); test: RIPK2 kinase selectivity assay
Chain of RIPK2 (O43353 whole entry, species assumed): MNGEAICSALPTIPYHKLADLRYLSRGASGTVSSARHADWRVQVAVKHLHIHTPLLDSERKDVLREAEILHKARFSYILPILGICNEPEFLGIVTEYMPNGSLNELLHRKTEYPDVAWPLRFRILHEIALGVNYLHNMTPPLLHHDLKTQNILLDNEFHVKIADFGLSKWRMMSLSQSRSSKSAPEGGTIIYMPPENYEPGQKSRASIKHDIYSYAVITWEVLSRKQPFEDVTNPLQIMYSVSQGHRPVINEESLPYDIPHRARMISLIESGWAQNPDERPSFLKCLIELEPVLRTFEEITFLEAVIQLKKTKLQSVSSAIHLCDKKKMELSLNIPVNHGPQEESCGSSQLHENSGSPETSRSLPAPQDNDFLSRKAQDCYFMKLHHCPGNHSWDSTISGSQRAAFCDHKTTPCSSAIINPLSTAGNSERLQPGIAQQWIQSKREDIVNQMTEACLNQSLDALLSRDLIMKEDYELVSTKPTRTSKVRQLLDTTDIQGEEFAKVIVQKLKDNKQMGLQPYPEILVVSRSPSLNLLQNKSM
Experimental: as §1, with “RIPK2” for “MST2”, “β-mercaptoethanol, 1 mg/ml BSA)” for “b-mercaptoethanol, 100 µM Vanadate)”, “[…]” for “25.5”, “0.1 mM EGTA,” for “0.05% b-mercaptoethanol,”, “[33P-γ-ATP]” for “[33P-g-ATP]”

[7] = target: SYK (Homo sapiens (Human), UniProt P43405); test: SYK kinase selectivity assay
Experimental: as §1, with “SYK” for “MST2”, “1 mg/ml BSA)” for “0.1% b-mercaptoethanol, 100 µM Vanadate)”, “a substrate peptide (Poly Glut Tyr)” for “MBP”, “1” for “0.05% b-mercaptoethanol, 0.33”, “substrate peptide,” for “MBP,”

[8] = target: EPH-B3 (Homo sapiens (Human), UniProt P54753); test: EPH-B3 kinase selectivity assay
Chain of EPH-B3 (P54753 34-998, species assumed): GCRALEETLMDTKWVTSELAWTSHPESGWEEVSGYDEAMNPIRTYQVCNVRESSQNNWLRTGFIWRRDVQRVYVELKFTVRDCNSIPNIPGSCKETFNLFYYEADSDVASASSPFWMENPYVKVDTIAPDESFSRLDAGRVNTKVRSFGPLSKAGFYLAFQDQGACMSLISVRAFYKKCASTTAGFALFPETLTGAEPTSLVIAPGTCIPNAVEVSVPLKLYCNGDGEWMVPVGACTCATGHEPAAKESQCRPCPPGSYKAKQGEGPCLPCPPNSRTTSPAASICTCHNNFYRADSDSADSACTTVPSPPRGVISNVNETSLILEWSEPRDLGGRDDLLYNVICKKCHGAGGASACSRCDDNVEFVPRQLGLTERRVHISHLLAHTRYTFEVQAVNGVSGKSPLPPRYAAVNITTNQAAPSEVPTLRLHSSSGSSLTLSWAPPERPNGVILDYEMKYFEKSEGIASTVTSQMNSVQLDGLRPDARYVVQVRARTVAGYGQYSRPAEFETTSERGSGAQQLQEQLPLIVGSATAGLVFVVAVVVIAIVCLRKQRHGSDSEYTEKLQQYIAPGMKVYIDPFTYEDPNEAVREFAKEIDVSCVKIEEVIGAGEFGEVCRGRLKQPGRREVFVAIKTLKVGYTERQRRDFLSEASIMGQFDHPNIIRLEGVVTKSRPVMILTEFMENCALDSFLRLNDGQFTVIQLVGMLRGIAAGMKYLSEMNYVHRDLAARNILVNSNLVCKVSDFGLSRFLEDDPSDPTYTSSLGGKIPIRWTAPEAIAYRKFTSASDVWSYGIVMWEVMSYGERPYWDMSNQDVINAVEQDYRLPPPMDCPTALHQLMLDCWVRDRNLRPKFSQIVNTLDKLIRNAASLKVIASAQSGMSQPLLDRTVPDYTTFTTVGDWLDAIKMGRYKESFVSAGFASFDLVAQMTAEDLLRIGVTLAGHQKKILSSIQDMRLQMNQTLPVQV
Experimental: EPH-B3 (5-20 mU diluted in 50 mM Tris pH 7.5, 0.1 mM EGTA, 1 mg/ml BSA) is assayed against a substrate peptide (Poly Glut Tyr) in a final volume of 25.5 μl containing 50 mM Tris pH 7.5, 1 mg/ml substrate peptide, 10 mM magnesium acetate and 0.005 mM [33P-g-ATP] (50-1000 cpm/pmole) and incubated for 30 min at room temperature. Assays are stopped by addition of 5 μl of 0.5 M (3%) orthophosphoric acid and then harvested onto P81 Unifilter plates with a wash buffer of 50 mM orthophosphoric acid.

[9] = target: IRR (Homo sapiens (Human), UniProt P14616); test: IRR kinase selectivity assay
Chain of IRR (P14616 27-1297, species assumed): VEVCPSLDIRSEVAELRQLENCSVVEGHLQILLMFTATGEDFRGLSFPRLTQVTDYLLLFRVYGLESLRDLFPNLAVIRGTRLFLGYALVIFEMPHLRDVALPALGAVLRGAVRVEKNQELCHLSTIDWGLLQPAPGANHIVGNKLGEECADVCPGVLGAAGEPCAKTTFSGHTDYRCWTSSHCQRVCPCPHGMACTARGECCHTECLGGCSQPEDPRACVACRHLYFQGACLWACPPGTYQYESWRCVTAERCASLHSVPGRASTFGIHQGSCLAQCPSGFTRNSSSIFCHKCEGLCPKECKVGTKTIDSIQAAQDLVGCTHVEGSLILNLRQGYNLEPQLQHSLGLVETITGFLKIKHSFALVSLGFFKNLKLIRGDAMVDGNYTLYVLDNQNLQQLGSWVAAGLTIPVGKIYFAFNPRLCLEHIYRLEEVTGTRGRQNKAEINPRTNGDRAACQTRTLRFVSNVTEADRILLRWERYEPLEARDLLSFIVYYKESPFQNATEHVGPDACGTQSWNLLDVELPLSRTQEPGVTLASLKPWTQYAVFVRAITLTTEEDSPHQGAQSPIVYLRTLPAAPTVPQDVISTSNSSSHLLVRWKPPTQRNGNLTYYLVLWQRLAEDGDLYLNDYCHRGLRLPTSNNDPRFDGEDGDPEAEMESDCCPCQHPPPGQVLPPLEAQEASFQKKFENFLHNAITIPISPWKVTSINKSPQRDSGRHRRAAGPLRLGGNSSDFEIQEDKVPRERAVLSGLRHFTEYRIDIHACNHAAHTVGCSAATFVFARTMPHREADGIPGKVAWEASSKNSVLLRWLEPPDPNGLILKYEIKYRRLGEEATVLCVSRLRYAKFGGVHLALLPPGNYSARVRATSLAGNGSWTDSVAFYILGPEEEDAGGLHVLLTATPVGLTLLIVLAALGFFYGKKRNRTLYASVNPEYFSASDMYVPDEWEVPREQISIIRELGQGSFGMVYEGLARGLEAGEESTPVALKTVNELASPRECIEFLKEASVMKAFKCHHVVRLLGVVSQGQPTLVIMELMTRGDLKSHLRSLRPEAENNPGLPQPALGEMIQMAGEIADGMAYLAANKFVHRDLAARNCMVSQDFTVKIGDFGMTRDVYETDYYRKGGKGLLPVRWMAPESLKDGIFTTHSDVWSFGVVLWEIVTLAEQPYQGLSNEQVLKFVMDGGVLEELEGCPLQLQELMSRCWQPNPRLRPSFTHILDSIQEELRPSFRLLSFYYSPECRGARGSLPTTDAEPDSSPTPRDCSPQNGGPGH
Experimental: 5-20 mU of IRR (diluted in 50 mM Hepes (pH 7.5), 0.1 mM EGTA) is assayed against MBP in a final volume of 25.5 μl containing 50 mM Hepes (pH 7.5), 0.1 mM EGTA, 0.33 mg/ml MBP, 10 mM magnesium acetate and 0.005 mM [33P-g-ATP](500-1000 cpm/pmole) and incubated for 30 mins at room temperature. Assays are stopped by addition of 5 μl of 0.5M (3%) orthophosphoric acid. Assays are harvested onto P81 Unifilter plates using a wash buffer of 50 mM orthophosphoric acid.

Chain of RSK2 (P51812 whole entry, species assumed): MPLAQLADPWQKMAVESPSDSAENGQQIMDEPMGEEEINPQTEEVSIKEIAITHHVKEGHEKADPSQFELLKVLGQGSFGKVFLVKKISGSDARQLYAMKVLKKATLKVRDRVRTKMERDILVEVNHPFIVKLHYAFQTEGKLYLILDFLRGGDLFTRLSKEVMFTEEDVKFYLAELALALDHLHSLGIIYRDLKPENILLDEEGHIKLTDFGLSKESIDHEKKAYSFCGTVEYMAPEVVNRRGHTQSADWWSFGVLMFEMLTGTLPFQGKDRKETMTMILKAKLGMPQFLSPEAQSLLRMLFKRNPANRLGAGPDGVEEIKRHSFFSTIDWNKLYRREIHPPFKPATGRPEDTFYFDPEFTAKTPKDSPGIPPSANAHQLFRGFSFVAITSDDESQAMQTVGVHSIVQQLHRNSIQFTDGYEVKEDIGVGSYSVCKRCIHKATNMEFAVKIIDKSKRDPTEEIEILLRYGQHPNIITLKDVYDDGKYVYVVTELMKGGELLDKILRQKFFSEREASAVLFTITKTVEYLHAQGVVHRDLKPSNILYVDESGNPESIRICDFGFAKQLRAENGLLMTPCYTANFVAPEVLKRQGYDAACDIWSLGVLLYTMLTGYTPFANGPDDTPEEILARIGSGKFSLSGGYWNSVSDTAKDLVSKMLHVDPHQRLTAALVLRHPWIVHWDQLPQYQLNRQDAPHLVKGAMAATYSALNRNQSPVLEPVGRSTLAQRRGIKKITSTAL

c1cc2[nH]nc3c2c(n1)N(C1CCC1)CCC3 [Example 22, 6-cyclobutyl-6,7,8,9-tetrahydro-2H-1,2,5,6-tetraazabenzo[cd]azulene]
percentage inhibition of RSK2 [1]: 8 percentage
percentage inhibition of GSK3b [2]: 16 percentage
percentage inhibition of EF2K [3]: 0 percentage
percentage inhibition of MST2 [4]: 20 percentage
percentage inhibition of MLK1 [5]: 0 percentage
percentage inhibition of RIPK2 [6]: 0 percentage
percentage inhibition of SYK [7]: 0 percentage
percentage inhibition of EPH-B3 [8]: 0 percentage
percentage inhibition of IRR [9]: 8 percentage

c1cc2[nH]nc3c2c(n1)N(C1CCCC1)CCC3 [Example 23, 6-cyclopentyl-6,7,8,9-tetrahydro-2H-1,2,5,6-tetraazabenzo[cd]azulene]
percentage inhibition of RSK2 [1]: 5 percentage
percentage inhibition of GSK3b [2]: 0 percentage
percentage inhibition of EF2K [3]: 0 percentage
percentage inhibition of MST2 [4]: 0 percentage
percentage inhibition of MLK1 [5]: 0 percentage
percentage inhibition of RIPK2 [6]: 0 percentage
percentage inhibition of SYK [7]: 0 percentage
percentage inhibition of EPH-B3 [8]: 0 percentage
percentage inhibition of IRR [9]: 4 percentage

c1cc2[nH]nc3c2c(n1)N(C1CCOCC1)CCC3 [Example 29, 6-(tetrahydro-2H-pyran-4-yl)-6,7,8,9-tetrahydro-2H-1,2,5,6-tetraazabenzo[cd]azulene]
percentage inhibition of RSK2 [1]: 0 percentage
percentage inhibition of GSK3b [2]: 0 percentage
percentage inhibition of EF2K [3]: 0 percentage
percentage inhibition of MST2 [4]: 10 percentage
percentage inhibition of MLK1 [5]: 0 percentage
percentage inhibition of RIPK2 [6]: 0 percentage
percentage inhibition of SYK [7]: 0 percentage
percentage inhibition of EPH-B3 [8]: 0 percentage
percentage inhibition of IRR [9]: 6 percentage

CN1CCC(N2Cc3ccccc3-c3n[nH]c4ccnc2c34)CC1 [Example 55]
percentage inhibition of RSK2 [1]: 21 percentage
percentage inhibition of GSK3b [2]: 0 percentage
percentage inhibition of EF2K [3]: 1 percentage
percentage inhibition of MST2 [4]: 28 percentage
percentage inhibition of MLK1 [5]: 24 percentage
percentage inhibition of RIPK2 [6]: 7 percentage
percentage inhibition of SYK [7]: 0 percentage
percentage inhibition of EPH-B3 [8]: 12 percentage
percentage inhibition of IRR [9]: 18 percentage

CC(C)n1ncc2c1CN(C1CCN(C)CC1)c1nccc3[nH]nc-2c13 [Example 68]
percentage inhibition of RSK2 [1]: 54 percentage
percentage inhibition of GSK3b [2]: 0 percentage
percentage inhibition of EF2K [3]: 1 percentage
percentage inhibition of MST2 [4]: 2 percentage
percentage inhibition of MLK1 [5]: 12 percentage
percentage inhibition of RIPK2 [6]: 0 percentage
percentage inhibition of SYK [7]: 1 percentage
percentage inhibition of EPH-B3 [8]: 5 percentage
percentage inhibition of IRR [9]: 1 percentage

From patent US10918645B2 (LIFEARC, priority 2016, dated 2021)
